# Measured values taken from US20050171116A1, “Enhancing the efficacy of tubercular drugs” (priority 2004, published 2005).
# How the values were obtained:
# AFB = test: Sputum AFB test (Ziehl-Neelson stain) in pulmonary tuberculosis patients; type: in vivo, human
# Protocol: Fifty four patients suffering from pulmonary tuberculosis were included in this study. Thirty patients were treated with four anti-tubercular drugs only. Twenty-four patients were treated with four anti-tubercular drugs and antioxidant drugs concomitantly.
# Four antitubercular drugs were given by oral route to all 54 patients in doses and frequency as shown below for a period of 60 days. The dosage regime for the anti-microbial drugs is known in the art as “2EHRZ.” It is an oral daily capsule of rifampicin, a tablet of isoniazid, a tablet of Pyrizinamide, and a tablet of ethambutal.
# Out of the total test population of fifty-four patients, twenty-four patients received, in addition to the above 2EHRZ regime, Factor Alpha tx for 60 days, administered daily, orally.
# In both of the two groups, three sputum samples for each patient were collected and were analyzed for the presence of AFB after 15 days, after 30 days and after sixty days. Analysis was by the Ziehl-Neelson (hot) stain method. The reports were documented as positive for presence of bacilli & negative for absence of bacilli.
# The first group (the control group) received Rifampicin, Isoniazid, Ethambutol and Pyrazinamide in daily oral doses mentioned above, on Out Patient Department (OPD) basis for 60 days. […]
# [1] = test system: sensitive strains of Mycobacterium Tuberculosis bacilli (MTB); test: Antibacterial efficacy in LJ medium, in vitro culture; type: cell-based
# Pseudomonas = test: Antibacterial activity in broth, culture growth after 24 hrs; type: cell-based
# Staphylococci = test: as above; type: cell-based
# Escherichia coli = test: as above; type: cell-based
compound,measurement,setting,value
"Cc1c(C)c2c(c(C)c1O)CC[C@@](C)(CCC[C@H](C)CCC[C@H](C)CCCC(C)C)O2 [Factor Alpha tx, α-tocopherol]",effect on sputum negativity of concurrent administration with routine anti tubercular agents,AFB,synergistic effects in augmenting sputum negativity
same,antibacterial efficacy,[1],effective
same,antibacterial activity,Pseudomonas,has antibacterial activity
same,antibacterial activity,Staphylococci,has antibacterial activity
same,antibacterial activity,Escherichia coli,has antibacterial activity
